The supplement of paper PMC4862054

Assays:
Conditions in all cases: incubation time: 72 h
[1] = system: MFM-223; experiment: normalised response (% of control), CellTox Green; higher = less cell death (100 = DMSO, 0 = benzethonium chloride kill control)
Method in brief: (§1)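 Two readouts were taken after 72 h: CellTox Green fluorescence (485/520 nm) first, then CellTiter-Glo luminescence after 10 min at room temperature. Breast cancer cell lines had been seeded as 20 µl suspension into 384-well plates holding compound at 5 concentrations in 10-fold steps across a compound-specific 10,000-fold range. Each value is a normalised signal at a single concentration, with plates scaled to 0.1 % DMSO (100) and a positive kill control (0).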

[2] = system: BT-474; experiment: as above
Method in brief: as §1

[3] = system: HCC1937; experiment: as above
Method in brief: as §1

[4] = system: MDA-MB-468; experiment: as above
Method in brief: as §1

[5] = system: HCC1599; experiment: as above
Method in brief: as §1

[6] = system: MDA-MB-436; experiment: as above
Method in brief: as §1

[7] = system: CAL-148; experiment: as above
Method in brief: as §1

[8] = system: MDA-MB-231; experiment: as above
Method in brief: as §1

[9] = system: BT-549; experiment: as above
Method in brief: as §1

[10] = system: DU-4475; experiment: as above
Method in brief: as §1

[11] = system: CAL-85-1; experiment: as above
Method in brief: as §1

[12] = system: HCC1143; experiment: as above
Method in brief: as §1

[13] = system: Hs578T; experiment: as above
Method in brief: as §1

[14] = system: CAL-51; experiment: as above
Method in brief: as §1

[15] = system: CAL-120; experiment: as above
Method in brief: as §1

[16] = system: MDA-MB-453; experiment: as above
Method in brief: as §1

[17] = system: MFM-223; experiment: normalised response (% of control), CellTiter-Glo; higher = more viable cells (100 = DMSO, 0 = benzethonium chloride kill control)
Description: (§2)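 DSRT, 72 h incubation, CellTox Green / CellTiter-Glo readout. Signal is normalised to DMSO and benzethonium chloride controls. Value is the normalised response at dose 3.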

[18] = system: BT-474; experiment: as above
Description: as §2

[19] = system: HCC1937; experiment: as above
Description: as §2

[20] = system: MDA-MB-468; experiment: as above
Description: as §2

[21] = system: HCC1599; experiment: as above
Description: as §2

[22] = system: MDA-MB-436; experiment: as above
Description: as §2

[23] = system: HDQ-P1; experiment: as above
Description: as §2

[24] = system: CAL-148; experiment: as above
Description: as §2

[25] = system: MDA-MB-231; experiment: as above
Description: as §2

[26] = system: SK-BR-3; experiment: as above
Description: as §2

[27] = system: BT-549; experiment: as above
Description: as §2

[28] = system: DU-4475; experiment: as above
Description: as §2

[29] = system: CAL-85-1; experiment: as above
Description: as §2

[30] = system: HCC1143; experiment: as above
Description: as §2

[31] = system: Hs578T; experiment: as above
Description: as §2

[32] = system: MCF-10A; experiment: as above
Description: as §2

[33] = system: CAL-51; experiment: as above
Description: as §2

[34] = system: CAL-120; experiment: as above
Description: as §2

[35] = system: MDA-MB-453; experiment: as above
Description: as §2

[36] = system: HDQ-P1; experiment: normalised response (% of control), CellTox Green; higher = less cell death (100 = DMSO, 0 = benzethonium chloride kill control)
Method in brief: as §1

[37] = system: MCF-10A; experiment: as above
Method in brief: as §1

SMILES	normalised response [1] [%]	normalised response [2] [%]	normalised response [3] [%]	normalised response [4] [%]	normalised response [5] [%]	normalised response [6] [%]	normalised response [7] [%]	normalised response [8] [%]	normalised response [9] [%]	normalised response [10] [%]	normalised response [11] [%]	normalised response [12] [%]	normalised response [13] [%]	normalised response [14] [%]	normalised response [15] [%]	normalised response [16] [%]	normalised response [17] [%]	normalised response [18] [%]	normalised response [19] [%]	normalised response [20] [%]	normalised response [21] [%]	normalised response [22] [%]	normalised response [23] [%]	normalised response [24] [%]	normalised response [25] [%]	normalised response [26] [%]	normalised response [27] [%]	normalised response [28] [%]	normalised response [29] [%]	normalised response [30] [%]	normalised response [31] [%]	normalised response [32] [%]	normalised response [33] [%]	normalised response [34] [%]	normalised response [35] [%]	normalised response [36] [%]	normalised response [37] [%]
CN(c1ccccc1CNc1nc(Nc2ccc3c(c2)CC(=O)N3)ncc1C(F)(F)F)S(C)(=O)=O (100 nM)	103	94.5	83.4	115	94	80.3	99.2	85.8	97.5	98.1	102	84.4	104	87.6	99.9	103	95.5	89.8	96.5	88.5	98.3	91.9	101	104	89.6	88.3	97.9	95.6	95.5	96.5	94.3	86.2	93.1	87.2	90.4		
Nc1nccc(-c2c(-c3ccc(F)cc3)ncn2C2CCCCC2)n1 (100 nM)	104	103	78.4		98.9	81.8	101	112	93.9	107	97.7	100	86.7	94.3	102	98.8	102	99.9	102	96.2	102	113	95.2	105	106	97.3	98.3	101	98.9	112	104	105	84.4	105	104	104	110
O=c1[nH]c(=O)n([C@H]2C[C@H](O)[C@@H](CO)O2)cc1F [Floxuridine] (100 nM)	98.5	102	51.1	96.2	113	115		115	114	107	87.3	63.4	103	95.6	107	104	113	99.3	75.4	86.1	66.8	74.6	90.8	110	100	71.4	94.4	103	57	103	28	109	57.2	99.3	116		97.8
COC1=C2C[C@@H](C)C[C@H](OC)[C@H](O)[C@@H](C)/C=C(\C)[C@H](OC(N)=O)[C@@H](OC)/C=C\C=C(/C)C(=O)NC(=CC1=O)C2=O [Geldanamycin] (100 nM)	95.2	100	111		106		106	103	99.4	104	96.5	76.5		96	99.7	106	115	102	101	106	109	107	102	118	113	105	96.5	106	108	104	107	103	84.7	109	113	106	95.5
CS(=O)(=O)CCNCc1ccc(-c2ccc3ncnc(Nc4ccc(OCc5cccc(F)c5)c(Cl)c4)c3c2)o1 [Lapatinib] (10 nM)	105	97.8	90.5	87.9	103	107		76.9	91.8	101	87.4	109	104	99.4	101	103	109	101	99.2	99.1	97.6	100	95.7	112	103	87.1	105	106	101	103	106	95.5	90.1	107	105	82.1	100
CC(C)(C)c1cc(NC(=O)Nc2ccc(-c3cn4c(n3)sc3cc(OCCN5CCOCC5)ccc34)cc2)no1 [Quizartinib] (10 nM)	102	97.6		137	117	95.2	108	99.1	104	99.3	107	125	107	89.8	94.6	93.9	105	109	98	103	89	109	101	103	108	104	108	97.9	103	104	102	105	71.4	108	101	92.7	106
Cn1c(=O)c(F)c(Nc2ccc(I)cc2F)c2c(=O)n(C[C@@H](O)CO)cnc21 [TAK-733] (10 nM)	104	103		113	119	114	107	99.2	105	95.9	104	118	71.8	104	103	112	102	89.8	88	92.6	82.3	104	74.5	97.2	90.3	107	104	38.9	93.7	92.6	96.8	53.8	84.7	97.6	115	-40.4	90.9
CCS(=O)(=O)c1cccc(-c2cc(C(=O)NC3CCN(C)CC3)c(C)c3[nH]c4ncc(C)cc4c23)c1 [TAK-901] (10 nM)	101	100	120	77.1	104	96	105	100	72.2	101	95.7	69		98.6	103	101	109	102	93.4	94.7	120	110	97	104	101	108	101	107	100	98.7	108	104	92.4	99.6	103	108	78.2
Cc1cc(C(C)Nc2ccccc2)c2nc(N3CCOCC3)cc(=O)n2c1 (centres undefined) [TGX-221] (100 nM)	99.2	89.3	80.5	52.6	95.3	97	81		92.5	99.1	114	74.4	98.5	90.6	105	96	94	90.1	88.1	86.4	113	94	98.7	100	92.7	99.7	86.5	95.8	99.7	96.4	93.9	93.5	65.8	97.2	93.2		108
